Among the test systems are UACC-62; MOLT-4; IGROV-1; OVCAR-8; CCRF-CEM; SNB-75; K562; LOX IMVI; SN12C; HCT-116; SK-MEL-2; HOP-62; OVCAR-3; SF-268; NCI-H226; CAKI-1; RXF 393.
Common to all, as to assay: NCI-60 cell line screen, 48 h

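Growth conditions: 96-well plates. Treatment: test compound, 48 hours, 5 concentrations. Analysis: linear interpolation between bracketing concentrations; unreached endpoints set to highest concentration. Here, GI50 denotes the concentration required for 50% inhibition of growth.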 Activity calls are given as the source filed them. Cut-off read from the data, not from the text of the source: active = GI50 up to about 1.1 µM and inactive = higher. Where only a bound is given, the exact number is not on record here.

Turning to `C/C(=N\NC(=N)N)C(CN(CC(C)C)CC(C)C)C(=O)Nc1ccc(C)cc1C` (stereo not drawn), the GI50 in the experiment on UACC-62, in the experiment with MOLT-4, in the experiment on IGROV-1, in the experiment on OVCAR-8, with CCRF-CEM and in the experiment with SNB-75 was > 100 µM (inactive) throughout. The GI50 in the experiment on K562, in the experiment on LOX IMVI, with SN12C, with HCT-116, in the experiment with SK-MEL-2 and with HOP-62 was > 100 µM (inactive) throughout. The GI50 in the experiment on OVCAR-3, in the experiment with SF-268, with NCI-H226, with CAKI-1 and in the experiment with RXF 393 was > 100 µM (inactive) throughout.
Turning to `O=c1c2ccccc2c(=O)n2n1-c1cccc(c1)CSSCc1cccc-2c1`, the GI50 with UACC-62, in the experiment with MOLT-4, with IGROV-1, in the experiment on OVCAR-8, in the experiment on CCRF-CEM and in the experiment with SNB-75 was > 10 µM (inactive) throughout. Also, the GI50 with K562 is > 10 µM (inactive); in the experiment with LOX IMVI it was > 100 µM (inactive); in the experiment with SN12C, > 10 µM (inactive); in the experiment on HCT-116, > 10 µM (inactive); in the experiment with SK-MEL-2 it was > 10 µM (inactive); in the experiment on HOP-62 it was > 10 µM (inactive). In addition, the GI50 was > 10 µM (inactive) in the experiment on OVCAR-3; > 10 µM (inactive) in the experiment on SF-268; > 10 µM (inactive) in the experiment with NCI-H226; > 10 µM (inactive) with CAKI-1; > 100 µM (inactive) in the experiment on RXF 393.
For `NC(=O)c1ncn(C2OC(CO)C(O)C2O)c1O` (stereo not drawn), the GI50 with UACC-62 was > 100 µM (inactive); in the experiment on MOLT-4 it was 72.1 µM (inactive); with IGROV-1, > 100 µM (inactive); in the experiment with OVCAR-8, > 100 µM (inactive); in the experiment with CCRF-CEM, > 100 µM (inactive); in the experiment with SNB-75, > 100 µM (inactive). Further, the GI50 in the experiment with K562 is > 100 µM (inactive); with LOX IMVI, > 100 µM (inactive); in the experiment on SN12C it was > 100 µM (inactive); in the experiment on HCT-116, 72.6 µM (inactive); in the experiment on SK-MEL-2 it was > 100 µM (inactive); with HOP-62 it was > 100 µM (inactive). Besides, the GI50 in the experiment on OVCAR-3 was 96.8 µM (inactive); with SF-268, > 100 µM (inactive); in the experiment on NCI-H226 it was 54.6 µM (inactive); in the experiment with CAKI-1, 83.4 µM (inactive); in the experiment on RXF 393 it was > 100 µM (inactive).
Turning to `CC(=O)NNc1nc(C)c(C(=O)/C=C/c2ccccc2Cl)s1`, the GI50 in the experiment on UACC-62, in the experiment on MOLT-4, with IGROV-1, in the experiment with OVCAR-8, in the experiment with CCRF-CEM and with SNB-75 was > 100 µM (inactive) throughout. Moreover, the GI50 in the experiment with K562, with LOX IMVI, in the experiment on SN12C, in the experiment on SK-MEL-2, in the experiment with HOP-62 and in the experiment with OVCAR-3 was > 100 µM (inactive) in each case. Also, the GI50 in the experiment with SF-268, with NCI-H226, in the experiment with CAKI-1 and in the experiment on RXF 393 was > 100 µM (inactive) throughout.
In the case of `NNC(=O)C(=O)N/N=C(\CCC(=O)Nc1ccc(Cl)cc1)Cc1nc2ccccc2s1`, the GI50 in the experiment with UACC-62 is 22.1 µM (inactive); in the experiment on MOLT-4, 18.5 µM (inactive); with IGROV-1, 13.6 µM (inactive); with OVCAR-8, > 100 µM (inactive); with CCRF-CEM, 3.32 µM (inactive); in the experiment with SNB-75 it was 81.1 µM (inactive). Further, the GI50 was 18.9 µM (inactive) with K562; 17.7 µM (inactive) with LOX IMVI; 34.6 µM (inactive) with SN12C; 28.1 µM (inactive) with HCT-116; 28.9 µM (inactive) in the experiment with SK-MEL-2; 53.2 µM (inactive) in the experiment on HOP-62. The GI50 is 18.2 µM (inactive) in the experiment on OVCAR-3; 25.3 µM (inactive) in the experiment with SF-268; > 100 µM (inactive) in the experiment with NCI-H226; 38.2 µM (inactive) with CAKI-1; 17.2 µM (inactive) with RXF 393.
Turning to `NC(CCCCN/C=C1/N=C(c2ccccc2)OC1=O)C(=O)O` (stereo not drawn), the GI50 with UACC-62 was > 100 µM (inactive); in the experiment with MOLT-4 it was > 100 µM (inactive); in the experiment on IGROV-1 it was > 100 µM (inactive); with OVCAR-8 it was > 100 µM (inactive); with CCRF-CEM it was 52 µM (inactive); with SNB-75, > 100 µM (inactive). Moreover, the GI50 with K562 is 53.6 µM (inactive); with LOX IMVI it was > 100 µM (inactive); in the experiment with SN12C it was > 100 µM (inactive); in the experiment on HCT-116 it was > 100 µM (inactive); in the experiment on SK-MEL-2 it was > 100 µM (inactive); in the experiment with HOP-62, > 100 µM (inactive). The GI50 with OVCAR-3, in the experiment with SF-268, in the experiment on NCI-H226 and with RXF 393 was > 100 µM (inactive) throughout.
On to `O=C1C(c2ccccc2)=C(c2ccccc2)C(c2ccc(Cc3ccc(C4=C(c5ccccc5)C(=O)C(c5ccccc5)=C4c4ccccc4)cc3)cc2)=C1c1ccccc1`, for which the GI50 in the experiment on UACC-62, in the experiment with MOLT-4, with IGROV-1, in the experiment on OVCAR-8, in the experiment on CCRF-CEM and with SNB-75 was > 100 µM (inactive) each time. Moreover, the GI50 in the experiment on K562, in the experiment on LOX IMVI, in the experiment on HCT-116, in the experiment on SK-MEL-2, in the experiment on HOP-62 and in the experiment with OVCAR-3 was > 100 µM (inactive) each time. Further, the GI50 in the experiment with SF-268 is > 100 µM (inactive); with NCI-H226, 50.6 µM (inactive); in the experiment with CAKI-1 it was > 100 µM (inactive); in the experiment with RXF 393, > 100 µM (inactive).
Consider `Cc1ccc2nc3c(C)cc(=O)cc-3sc2c1`, for which the GI50 in the experiment with UACC-62 is 14.1 µM (inactive); in the experiment on MOLT-4 it was 12.6 µM (inactive); in the experiment on IGROV-1, 31.8 µM (inactive); in the experiment with OVCAR-8, 22.8 µM (inactive); with CCRF-CEM it was 10.5 µM (inactive); in the experiment on SNB-75, 32.7 µM (inactive). Moreover, the GI50 in the experiment on K562 was 12.6 µM (inactive); in the experiment on SN12C it was 21.3 µM (inactive); in the experiment with HCT-116, 17.3 µM (inactive); with SK-MEL-2 it was 20 µM (inactive); in the experiment with HOP-62, 27.5 µM (inactive); with OVCAR-3 it was 22 µM (inactive). Also, the GI50 in the experiment with SF-268 is 25.6 µM (inactive); with NCI-H226, 24.8 µM (inactive); in the experiment on CAKI-1, 19.3 µM (inactive).
Regarding `O=C(CC1C(=O)Nc2ccccc2[S+]1[O-])Nc1ccc(Cl)cc1` (stereo not drawn), the GI50 in the experiment with UACC-62 is 37 µM (inactive); in the experiment on MOLT-4, 50.2 µM (inactive); in the experiment on IGROV-1, 41.3 µM (inactive); in the experiment with OVCAR-8 it was 32.7 µM (inactive); in the experiment with SNB-75 it was 29.4 µM (inactive); with K562, > 100 µM (inactive). Moreover, the GI50 in the experiment on LOX IMVI was > 100 µM (inactive); in the experiment on SN12C, 72.4 µM (inactive); with SK-MEL-2 it was > 100 µM (inactive); in the experiment with HOP-62, 33.7 µM (inactive); with OVCAR-3, > 100 µM (inactive); in the experiment with SF-268, 57.5 µM (inactive). Moreover, the GI50 in the experiment on NCI-H226 and in the experiment on CAKI-1 was > 100 µM (inactive) in each case.
Take `CCN(CC)C(=S)N/N=C(\C)c1ccccc1O`: the GI50 in the experiment with UACC-62 was 10.9 µM (inactive); with MOLT-4, 8.59 µM (inactive); in the experiment with IGROV-1, 24.5 µM (inactive); in the experiment with OVCAR-8, 19.5 µM (inactive); with CCRF-CEM, 5 µM (inactive); with SNB-75 it was 44.2 µM (inactive). Moreover, the GI50 was 0.0568 µM (active) in the experiment on K562; 15.5 µM (inactive) in the experiment with LOX IMVI; 20.9 µM (inactive) in the experiment on SN12C; 19 µM (inactive) with SK-MEL-2; 34.6 µM (inactive) in the experiment on HOP-62; 34.3 µM (inactive) in the experiment with OVCAR-3. In addition, the GI50 is 17.9 µM (inactive) with SF-268, 20.7 µM (inactive) in the experiment with NCI-H226, 18.4 µM (inactive) in the experiment with CAKI-1 and 25.6 µM (inactive) in the experiment on RXF 393.
Turning to `Cn1cnc2[nH]c(=O)[nH]c(=S)c21`, the GI50 in the experiment on UACC-62, in the experiment on MOLT-4, in the experiment on IGROV-1, in the experiment with OVCAR-8, with CCRF-CEM and in the experiment on SNB-75 was > 100 µM (inactive) throughout. In addition, the GI50 with K562, in the experiment with SN12C, in the experiment on HCT-116, in the experiment on SK-MEL-2, in the experiment with HOP-62 and in the experiment on OVCAR-3 was > 100 µM (inactive) in each case. For the same compound, the GI50 with SF-268, in the experiment with NCI-H226, in the experiment on CAKI-1 and in the experiment on RXF 393 was > 100 µM (inactive) throughout.
Take `CN(C)CCNC(=O)c1c2ccccc2cc2ccccc12`: the GI50 is 20 µM (inactive) in the experiment with UACC-62; 3.99 µM (inactive) in the experiment on MOLT-4; 41 µM (inactive) in the experiment on IGROV-1; 38.1 µM (inactive) in the experiment on OVCAR-8; 31.1 µM (inactive) in the experiment with CCRF-CEM; 42.9 µM (inactive) in the experiment on SNB-75. For the same compound, the GI50 is 23.2 µM (inactive) in the experiment on K562; 13.5 µM (inactive) with LOX IMVI; 34.4 µM (inactive) in the experiment with SN12C; 26.8 µM (inactive) with HCT-116; 8 µM (inactive) with SK-MEL-2; 55.7 µM (inactive) in the experiment on HOP-62. In addition, the GI50 is 93.8 µM (inactive) with OVCAR-3, 44.7 µM (inactive) with SF-268, 12 µM (inactive) in the experiment with NCI-H226 and 25.3 µM (inactive) with RXF 393.

These data come from ChEMBL document CHEMBL1201862, “PubChem BioAssay data set” (2004).
